# Data reported in PubChem BioAssay AID248 (DTP/NCI, 2004).
# Toxic doses and inconclusive results are not listed.
# Test system: L1210 leukemia ip in BDF1 mice, survival T/C
# Assay: NCI In Vivo Anticancer Drug Screen. Data for tumor model L1210 Leukemia (intraperitoneal) in B6D2F1 (BDF1) mice
# Details: endpoint: mean survival time, higher = longer survival
# Summary of the method: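 Tumor cells were implanted, animals were treated, and survival was followed. The result divides the treated measurement by the vehicle-control measurement.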
# [1] = dose: 100.0 mg/kg/injection, schedule: Q01DX009 (ip), vehicle: Klucel (hydroxypropylcellulose) (HPC)
# [2] = dose: 200.0 mg/kg/injection, schedule: Q01DX009 (ip), vehicle: Klucel (hydroxypropylcellulose) (HPC)
# [3] = dose: 400.0 mg/kg/injection, schedule: Q01DX009 (ip), vehicle: Klucel (hydroxypropylcellulose) (HPC)
# [4] = dose: 100.0 mg/kg/injection, schedule: Q01DX001 (ip), vehicle: Klucel (hydroxypropylcellulose) (HPC)
# [5] = dose: 200.0 mg/kg/injection, schedule: Q01DX001 (ip), vehicle: Klucel (hydroxypropylcellulose) (HPC)
# [6] = dose: 400.0 mg/kg/injection, schedule: Q01DX001 (ip), vehicle: Klucel (hydroxypropylcellulose) (HPC)
# [7] = dose: 100.0 mg/kg/injection, schedule: Q01DX009 (ip), vehicle: saline with Tween-80
# [8] = dose: 200.0 mg/kg/injection, schedule: Q01DX009 (ip), vehicle: saline with Tween-80
# [9] = dose: 400.0 mg/kg/injection, schedule: Q01DX009 (ip), vehicle: saline with Tween-80
# [10] = dose: 100.0 mg/kg/injection, schedule: Q01DX001 (ip), vehicle: carboxymethylcellulose (CMC)
# [11] = dose: 200.0 mg/kg/injection, schedule: Q01DX001 (ip), vehicle: carboxymethylcellulose (CMC)
# [12] = dose: 400.0 mg/kg/injection, schedule: Q01DX001 (ip), vehicle: carboxymethylcellulose (CMC)
# [13] = dose: 100.0 mg/kg/injection, schedule: Q01DX001 (ip), vehicle: saline
# [14] = dose: 100.0 mg/kg/injection, schedule: Q04DX002 (ip), vehicle: Klucel (hydroxypropylcellulose) (HPC)
# [15] = dose: 200.0 mg/kg/injection, schedule: Q04DX002 (ip), vehicle: Klucel (hydroxypropylcellulose) (HPC)
# [16] = dose: 400.0 mg/kg/injection, schedule: Q04DX002 (ip), vehicle: Klucel (hydroxypropylcellulose) (HPC)
# [17] = dose: 100.0 mg/kg/injection, schedule: Q04DX003 (ip), vehicle: saline
# [18] = dose: 200.0 mg/kg/injection, schedule: Q04DX003 (ip), vehicle: saline
# [19] = dose: 400.0 mg/kg/injection, schedule: Q04DX003 (ip), vehicle: saline
compound,measurement,setting,value
CSc1nsc(SC)c1C#N,T/C,[1],103 % of control
same,T/C,[2],97 % of control
same,T/C,[3],92 % of control
N=C(N)c1cccc(OCCCc2ccccc2)c1,T/C,[4],100 % of control
same,T/C,[5],97 % of control
same,T/C,[6],100 % of control
Nc1ccc(-c2ccc(Nc3cc(S(=O)(=O)O)c(N)c4c3C(=O)c3ccccc3C4=O)cc2)c(S(=O)(=O)O)c1,T/C,"dose: 10.0 mg/kg/injection, schedule: Q01DX001 (ip), vehicle: acetone",96 % of control
same,T/C,"dose: 20.0 mg/kg/injection, schedule: Q01DX001 (ip), vehicle: acetone",89 % of control
same,T/C,"dose: 40.0 mg/kg/injection, schedule: Q01DX001 (ip), vehicle: acetone",100 % of control
CCCOC(=O)Nc1cccc(O)c1,T/C,[7],92 % of control
same,T/C,[8],94 % of control
same,T/C,[9],88 % of control
CC(=O)NNS(=O)(=O)c1ccccc1,T/C,[4],102 % of control
same,T/C,[1],106 % of control
same,T/C,[5],100 % of control
same,T/C,[2],95 % of control
same,T/C,[6],105 % of control
CCN(CC)S(=O)(=O)c1cccc([N+](=O)[O-])c1,T/C,[7],99 % of control
O=C(Nc1nccs1)C(Cl)Cl,T/C,[10],103 % of control
same,T/C,"dose: 177.0 mg/kg/injection, schedule: Q01DX001 (ip), vehicle: Klucel (hydroxypropylcellulose) (HPC)",105 % of control
same,T/C,[11],118 % of control
same,T/C,"dose: 266.0 mg/kg/injection, schedule: Q01DX001 (ip), vehicle: Klucel (hydroxypropylcellulose) (HPC)",107 % of control
same,T/C,[6],105 % of control
same,T/C,[12],249 % of control
same,T/C,"dose: 600.0 mg/kg/injection, schedule: Q01DX001 (ip), vehicle: Klucel (hydroxypropylcellulose) (HPC)",105 % of control
COc1ccc(NC(=O)N(CCCl)N=O)cc1,T/C,"dose: 0.12 mg/kg/injection, schedule: Q01DX Z (ip), vehicle: carboxymethylcellulose (CMC)",112 % of control
same,T/C,"dose: 1.25 mg/kg/injection, schedule: Q01DX Z (ip), vehicle: carboxymethylcellulose (CMC)",123 % of control
same,T/C,"dose: 4.4 mg/kg/injection, schedule: Q01DX015 (ip), vehicle: saline",200 % of control
same,T/C,"dose: 4.4 mg/kg/injection, schedule: Q01DX Z (ip), vehicle: carboxymethylcellulose (CMC)",192 % of control
same,T/C,"dose: 5.0 mg/kg/injection, schedule: Q01DX Z (ip), vehicle: carboxymethylcellulose (CMC)",160 % of control
same,T/C,"dose: 6.6 mg/kg/injection, schedule: Q01DX015 (ip), vehicle: saline",224 % of control
same,T/C,"dose: 6.6 mg/kg/injection, schedule: Q01DX Z (ip), vehicle: carboxymethylcellulose (CMC)",222 % of control
same,T/C,"dose: 9.9 mg/kg/injection, schedule: Q01DX001 (ip), vehicle: carboxymethylcellulose (CMC)",160 % of control
same,T/C,"dose: 10.0 mg/kg/injection, schedule: Q01DX015 (ip), vehicle: saline",196 % of control
same,T/C,"dose: 10.0 mg/kg/injection, schedule: Q01DX Z (ip), vehicle: carboxymethylcellulose (CMC)",187 % of control
same,T/C,"dose: 15.0 mg/kg/injection, schedule: Q01DX015 (ip), vehicle: saline",195 % of control
same,T/C,"dose: 15.0 mg/kg/injection, schedule: Q01DX Z (ip), vehicle: carboxymethylcellulose (CMC)",120 % of control
same,T/C,"dose: 19.8 mg/kg/injection, schedule: Q01DX001 (ip), vehicle: carboxymethylcellulose (CMC)",166 % of control
same,T/C,"dose: 20.0 mg/kg/injection, schedule: Q01DX Z (ip), vehicle: carboxymethylcellulose (CMC)",93 % of control
same,T/C,"dose: 39.6 mg/kg/injection, schedule: Q01DX001 (ip), vehicle: carboxymethylcellulose (CMC)",206 % of control
same,T/C,"dose: 60.0 mg/kg/injection, schedule: Q01DX001 (ip), vehicle: saline",158 % of control
same,T/C,"dose: 79.2 mg/kg/injection, schedule: Q01DX001 (ip), vehicle: carboxymethylcellulose (CMC)",105 % of control
same,T/C,"dose: 120.0 mg/kg/injection, schedule: Q01DX001 (ip), vehicle: saline",111 % of control
same,T/C,"dose: 240.0 mg/kg/injection, schedule: Q01DX001 (ip), vehicle: saline",156 % of control
Cc1ccc(S(=O)(=O)OCCN(CCOS(=O)(=O)c2ccc(C)cc2)c2ccc(N=O)cc2)cc1,T/C,"dose: 50.0 mg/kg/injection, schedule: Q01DX001 (ip), vehicle: saline",115 % of control
same,T/C,[13],124 % of control
FC(F)(F)c1cccc(-n2nncc2-c2ccccc2)c1,T/C,[14],97 % of control
same,T/C,[15],101 % of control
same,T/C,[16],97 % of control
CCNC(=O)Nc1ccc(N(CC)CC)cc1,T/C,[7],93 % of control
same,T/C,"dose: 100.0 mg/kg/injection, schedule: Q04DX003 (ip), vehicle: saline with Tween-80",103 % of control
same,T/C,[8],87 % of control
same,T/C,"dose: 200.0 mg/kg/injection, schedule: Q04DX003 (ip), vehicle: saline with Tween-80",96 % of control
same,T/C,[9],98 % of control
same,T/C,"dose: 400.0 mg/kg/injection, schedule: Q04DX003 (ip), vehicle: saline with Tween-80",96 % of control
Nc1nc2ncc(CN(C(=O)C(F)(F)F)c3ccc(C(=O)NC(CCC(=O)O)C(=O)O)cc3)nc2c(=O)[nH]1 (stereo unspecified),T/C,[4],100 % of control
same,T/C,[5],107 % of control
same,T/C,[6],111 % of control
O=C(N/C=C/NC(=O)OC(=O)C(Cl)(Cl)Cl)OC(=O)C(Cl)(Cl)Cl,T/C,[17],92 % of control
same,T/C,[18],88 % of control
same,T/C,[19],93 % of control
CC(C)=CCCC(=O)Oc1ccccc1C(=O)O,T/C,[17],99 % of control
same,T/C,[18],91 % of control
same,T/C,[19],93 % of control
CC1=Cc2ccc(C)cc2C(=O)C1=O,T/C,"dose: 6.25 mg/kg/injection, schedule: Q04DX003 (ip), vehicle: saline with Tween-80",94 % of control
COc1ccc(NC(=O)Nc2ccccc2C(N)=O)cc1,T/C,"dose: 50.0 mg/kg/injection, schedule: Q01DX009 (ip), vehicle: Klucel (hydroxypropylcellulose) (HPC)",93 % of control
same,T/C,[1],93 % of control
same,T/C,[2],96 % of control
CCOC(=O)CNC(=O)CO,T/C,"dose: 100.0 mg/kg/injection, schedule: Q01DX001 (ip), vehicle: other",101 % of control
same,T/C,"dose: 200.0 mg/kg/injection, schedule: Q01DX001 (ip), vehicle: other",95 % of control
same,T/C,"dose: 400.0 mg/kg/injection, schedule: Q01DX001 (ip), vehicle: other",101 % of control
Cc1c(C)n(C2OC(CO)C(O)C2O)c(=O)[nH]c1=O (stereo unspecified),T/C,[13],96 % of control
same,T/C,"dose: 200.0 mg/kg/injection, schedule: Q01DX001 (ip), vehicle: saline",108 % of control
same,T/C,"dose: 400.0 mg/kg/injection, schedule: Q01DX001 (ip), vehicle: saline",93 % of control
COc1ccc(OC)c(NCCN2C(=O)c3ccccc3C2=O)c1,T/C,[14],95 % of control
same,T/C,[15],100 % of control
same,T/C,[16],100 % of control
O=[N+]([O-])c1ccc(CC(O)c2ccccc2Cl)cc1 (stereo unspecified),T/C,[1],102 % of control
same,T/C,"dose: 100.0 mg/kg/injection, schedule: Q04DX003 (ip), vehicle: Klucel (hydroxypropylcellulose) (HPC)",101 % of control
same,T/C,[2],102 % of control
same,T/C,"dose: 200.0 mg/kg/injection, schedule: Q04DX003 (ip), vehicle: Klucel (hydroxypropylcellulose) (HPC)",101 % of control
same,T/C,[3],97 % of control
same,T/C,"dose: 400.0 mg/kg/injection, schedule: Q04DX003 (ip), vehicle: Klucel (hydroxypropylcellulose) (HPC)",97 % of control
COc1cc(N(CCCl)CCCl)ccc1/C=N/Nc1nncn1N,T/C,"dose: 50.0 mg/kg/injection, schedule: Q01DX001 (ip), vehicle: carboxymethylcellulose (CMC)",101 % of control
same,T/C,[10],98 % of control
same,T/C,[11],110 % of control
same,T/C,[12],104 % of control
CCN1CCCC(Nc2cc(C)nc(/N=C(\N)Nc3ccc(Cl)c(Cl)c3)n2)C1 (stereo unspecified),T/C,"dose: 75.0 mg/kg/injection, schedule: Q01DX001 (ip), vehicle: saline",92 % of control
CC(=O)CN,T/C,"dose: 100.0 mg/kg/injection, schedule: Q01DX009 (ip), vehicle: saline",111 % of control
same,T/C,"dose: 200.0 mg/kg/injection, schedule: Q01DX009 (ip), vehicle: saline",104 % of control
same,T/C,"dose: 400.0 mg/kg/injection, schedule: Q01DX009 (ip), vehicle: saline",108 % of control
